This is an account of results in patent publication US20080021069A1, “Receptor Function Regulating Agent” (TAKEDA PHARMACEUTICAL COMPANY LIMITED, priority 2004, published 2008).

One series concerns the target T1, human GPR40 (Homo sapiens, UniProt O14842).
T1 construct: expressed in transfected cells; host or cells: CHO(dhfr-) cells: line CHO-hGPR40 No. 104 of WO2004/041266, with a stably expressed NFAT-TA-Luc reporter (CHO(dhfr-)/GPR40-NFAT-Luc)
Put plainly: GPR40 antagonist activity with changes in intracellular calcium concentration as index (NFAT-luciferase reporter, CHO(dhfr-)/GPR40-NFAT-Luc cells). Format: cell-based. The conditions noted are these: CHO cell line expressing human GPR40, NFAT-Luc reporter; GPR40 agonist 3-(4-((6-benzyloxy-2',6'-dimethyl-biphenyl-3-yl)methoxy)phenyl)propanoic acid 40 nM; 4 hr culture; 0.1% fatty acid-free BSA. An excerpt: Evaluation of GPR40 antagonist activity with changes in intracellular calcium concentration as index
An assay system of GPR40 antagonist was established as follows. In this assay system, as the GPR40 agonist, 3-(4-((6-benzyloxy-2′,6′-dimethyl-biphenyl-3-yl)methoxy)phenyl)propanoic acid (compound described in Example 340 of WO2004/041266) was used.
First, NFAT-TA was cut out from pNFAT-TA-Luc (manufactured by BD Bioscience Clontech) with HindIII and NheI, the recovered fragment was inserted into pGL3 basic neo digested with HindIII and NheI to give plasmid:pGL3 basic neo NFAT-TA-Luc.
This plasmid was used for “the CHO cell line (CHO-hGPR40 No. 104), which was made to express human GPR40” described in WO2004/041266, and a cell line CHO(dhfr-)/GPR40-NFAT-Luc, wherein a reporter gene was stably expressed by a method known per se, was prepared.
This cell line was diluted with a medium (nucleic acid-free MEM (Minimum Essential Medium)—α medium added with dialyzed FBS (Fetal Bovine Serum) to a final concentration of 10%) in such a manner that 2×10^4 cells/100 μl would be contained, dispensed to a white walled 96 well plate (manufactured by Coster) by 100 μl per well, and cultured overnight in a CO2 incubator. Then the medium was removed by suction from the 96 well plate, and a 10 mM test compound-dimethyl sulfoxide (manufactured by Wako Pure Chemical Industries, Ltd.) solution diluted with a medium (nucleic acid-free MEM—α medium added with bovine serum albumin (BSA) free of fatty acid to a final concentration of 0.1%) to each concentration was added by 50 μl per well. Further, 3-(4-((6-benzyloxy-2′,6′-dimethyl-biphenyl-3-yl)methoxy)phenyl)propanoic acid diluted with a medium (nucleic acid-free MEM-α (medium added with BSA free of fatty acid to a final concentration of 0.1%) to a final concentration of 40 nM was added to the 96 well plate by 50 μl per well.
After culture in a CO2 incubator for 4 hr, the culture medium was removed from the 96 well plate. Then, PicaGene (manufactured by TOYO INK MFG. CO., LTD.) was added to the 96 well plate, and the luciferase activity was determined using PerkinElmer ARVO (trade name, manufactured by PerkinElmer), based on which changes in the intracellular calcium concentration were evaluated. After assay of luciferase activity, nonlinear regression analysis was performed using PRISM 3 (trade name, manufactured by GraphPad) and IC50 value was calculated with changes in the intracellular calcium concentration as an index.
In the same manner as in Experimental Example 1, the IC50 value of the compound of the present invention was calculated.

T1 sequence (O14842 whole entry): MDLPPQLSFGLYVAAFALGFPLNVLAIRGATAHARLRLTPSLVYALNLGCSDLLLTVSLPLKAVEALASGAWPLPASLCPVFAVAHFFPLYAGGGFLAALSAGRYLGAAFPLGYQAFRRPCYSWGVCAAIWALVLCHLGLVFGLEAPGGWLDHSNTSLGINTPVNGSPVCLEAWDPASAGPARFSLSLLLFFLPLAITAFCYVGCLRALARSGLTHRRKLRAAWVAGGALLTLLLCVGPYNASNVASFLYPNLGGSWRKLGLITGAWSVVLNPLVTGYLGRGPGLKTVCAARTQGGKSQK

In the case of `CCOc1ccc(-n2c(NCc3ccc(Cl)cc3)nc3ccc(Cl)cc32)cc1` [Example 47, 6-Chloro-N-(4-chlorobenzyl)-1-(4-ethoxyphenyl)-1H-benzimidazol-2-amine], the melting point (commonly the temperature, or range, at which the solid turns liquid) was in the range of 135 to 136 °C. The IC50 (commonly the point on the concentration scale where inhibition reaches its midpoint) at human GPR40 is under 100 nM.
The corresponding values for `COc1ccc(-n2c(NCc3ccc(C(C)(C)C)cc3)nc3ccc(Cl)cc32)cc1` [Example 72, N-(4-tert-Butylbenzyl)-6-chloro-1-(4-methoxyphenyl)-1H-benzimidazol-2-amine] are 208 to 209 °C and under 100 nM.
The corresponding values for `CCCOc1ccc(-n2c(NCc3ccc(C(C)(C)C)cc3)nc3ccc(Cl)cc32)cc1` [Example 73, N-(4-tert-Butylbenzyl)-6-chloro-1-(4-propoxyphenyl)-1H-benzimidazol-2-amine] are 98 to 100 °C and under 100 nM.
In the case of `CCCOc1ccc(-n2c(NCc3ccc(Cl)cc3)nc3ccc(Cl)cc32)cc1` [Example 74, 6-Chloro-N-(4-chlorobenzyl)-1-(4-propoxyphenyl)-1H-benzimidazol-2-amine], the melting point lay within 130 to 131 °C. Further, the IC50 at human GPR40 was under 100 nM.
On the same counts, the results for `CCCCOc1ccc(-n2c(NCc3ccc(Cl)cc3)nc3ccc(Cl)cc32)cc1` [Example 76, 1-(4-Butoxyphenyl)-6-chloro-N-(4-chlorobenzyl)-1H-benzimidazol-2-amine] are 122 to 123 °C and under 100 nM.
On the same counts, the results for `CC(C)(C)c1ccc(CNc2nc3ccc(Cl)cc3n2-c2ccc(OCC(F)(F)F)cc2)cc1` [Example 78, N-(4-tert-Butylbenzyl)-6-chloro-1-[4-(2,2,2-trifluoroethoxy)phenyl]-1H-benzimidazol-2-amine] are 151 to 152 °C and under 100 nM.
Compound `CC(C)(C)c1ccc(CNc2nc3ccc(Cl)cc3n2-c2ccc(OC(F)(F)F)cc2)cc1` [Example 80, N-(4-tert-Butylbenzyl)-6-chloro-1-[4-(trifluoromethoxy)phenyl]-1H-benzimidazol-2-amine] came in with a melting point of 181 to 182 °C. Moreover, at human GPR40, the IC50 is under 100 nM.
On the same counts, the results for `CCOc1ccc(-n2c(NCc3ccc(C(C)(C)C)cc3)nc3cc(Cl)ccc32)cc1` [Example 81, N-(4-tert-Butylbenzyl)-5-chloro-1-(4-ethoxyphenyl)-1H-benzimidazol-2-amine] are 211 to 212 °C and under 100 nM.
`CCOc1ccc(-n2c(NCc3ccc(Cl)cc3)nc3cc(Cl)ccc32)cc1` [Example 82, 5-Chloro-N-(4-chlorobenzyl)-1-(4-ethoxyphenyl)-1H-benzimidazol-2-amine] gave a melting point of 109 to 110 °C. Further, the IC50 at human GPR40 was under 100 nM.
On the same counts, the results for `CCCOc1ccc(-n2c(NCc3ccc(C(C)(C)C)cc3)nc3cc(Cl)ccc32)cc1` [Example 83, N-(4-tert-Butylbenzyl)-5-chloro-1-(4-propoxyphenyl)-1H-benzimidazol-2-amine] are 190 to 191 °C and under 100 nM.
On the same counts, the results for `CCCCOc1ccc(-n2c(NCc3ccc(C(C)(C)C)cc3)nc3cc(Cl)ccc32)cc1` [Example 86, 1-(4-Butoxyphenyl)-N-(4-tert-butylbenzyl)-5-chloro-1H-benzimidazol-2-amine] are 158 to 159 °C and under 100 nM.
The compound `CC(C)(C)c1ccc(CNc2nc3cc(Cl)ccc3n2-c2ccc(OCC(F)(F)F)cc2)cc1` [Example 89, N-(4-tert-Butylbenzyl)-5-chloro-1-[4-(2,2,2-trifluoroethoxy)phenyl]-1H-benzimidazol-2-amine] showed a melting point of 190 to 191 °C. The IC50 at human GPR40 was under 100 nM.
On the same counts, the results for `CCOc1ccc(-n2c(NCc3ccc(C(C)(C)C)cc3)nc3cc(Cl)c(Cl)cc32)cc1` [Example 93, N-(4-tert-Butylbenzyl)-5,6-dichloro-1-(4-ethoxyphenyl)-1H-benzimidazol-2-amine] are 186 to 187 °C and under 100 nM.
In the case of `CCOc1ccc(-n2c(NCc3ccc(Cl)cc3)nc3cc(Cl)c(Cl)cc32)cc1` [Example 94, 5,6-Dichloro-N-(4-chlorobenzyl)-1-(4-ethoxyphenyl)-1H-benzimidazol-2-amine], the melting point lay in the range of 141 to 142 °C. For the same compound, on human GPR40, the half-maximal inhibitory concentration (IC50) was under 100 nM.
For the compound `CCOc1ccc(-n2c(NCc3ccc(Br)cc3)nc3cc(Cl)c(Cl)cc32)cc1` [Example 95, N-(4-Bromobenzyl)-5,6-dichloro-1-(4-ethoxyphenyl)-1H-benzimidazol-2-amine], the melting point is 92 to 93 °C. Further, the IC50 at human GPR40 is under 100 nM.
The corresponding values for `CCCOc1ccc(-n2c(NCc3ccc(C(C)(C)C)cc3)nc3cc(Cl)c(Cl)cc32)cc1` [Example 96, N-(4-tert-Butylbenzyl)-5,6-dichloro-1-(4-propoxyphenyl)-1H-benzimidazol-2-amine] are 122 to 123 °C and under 100 nM.
The corresponding values for `CCCOc1ccc(-n2c(NCc3ccc(Br)cc3)nc3cc(Cl)c(Cl)cc32)cc1` [Example 97, N-(4-Bromobenzyl)-5,6-dichloro-1-(4-propoxyphenyl)-1H-benzimidazol-2-amine] are 106 to 107 °C and under 100 nM.
`CCCOc1ccc(-n2c(NCc3ccc(Cl)cc3)nc3cc(Cl)c(Cl)cc32)cc1` [Example 98, 5,6-Dichloro-N-(4-chlorobenzyl)-1-(4-propoxyphenyl)-1H-benzimidazol-2-amine] had a melting point of 166 to 167 °C. Besides, the IC50 on human GPR40 was under 100 nM.
On the same counts, the results for `CCCCOc1ccc(-n2c(NCc3ccc(Br)cc3)nc3cc(Cl)c(Cl)cc32)cc1` [Example 100, 1-(4-Butoxyphenyl)-5,6-dichloro-N-(4-bromobenzyl)-1H-benzimidazol-2-amine] are 161 to 162 °C and under 100 nM.
The compound `CCCCOc1ccc(-n2c(NCc3ccc(Cl)cc3)nc3cc(Cl)c(Cl)cc32)cc1` [Example 101, 1-(4-Butoxyphenyl)-5,6-dichloro-N-(4-chlorobenzyl)-1H-benzimidazol-2-amine] returned a melting point of 162 to 163 °C. At human GPR40, the IC50 was under 100 nM.
Regarding `CC(C)(C)c1ccc(CNc2nc3cc(Cl)c(Cl)cc3n2-c2ccc(OCC(F)(F)F)cc2)cc1` [Example 102, N-(4-tert-Butylbenzyl)-5,6-dichloro-1-[4-(2,2,2-trifluoroethoxy)phenyl]-1H-benzimidazol-2-amine], the melting point lay within 136 to 137 °C. Besides, the IC50 on human GPR40 was under 100 nM.
Take `FC(F)(F)COc1ccc(-n2c(NCc3ccc(Br)cc3)nc3cc(Cl)c(Cl)cc32)cc1` [Example 103, N-(4-Bromobenzyl)-5,6-dichloro-1-[4-(2,2,2-trifluoroethoxy)phenyl]-1H-benzimidazol-2-amine]: the melting point was 118 to 120 °C. Also, the half-maximal inhibitory concentration (IC50) on human GPR40 is under 100 nM.
The corresponding values for `CC(C)(C)c1ccc(CNc2nc3cc(Cl)c(Cl)cc3n2-c2ccc(OC(F)(F)F)cc2)cc1` [Example 105, N-(4-tert-butylbenzyl)-5,6-dichloro-1-[4-(trifluoromethoxy)phenyl]-1H-benzimidazol-2-amine] are 158 to 159 °C and under 100 nM.
The corresponding values for `CC(C)(C)c1ccc(CNc2nc3ccc(Cl)cc3n2-c2ccc(OC(F)(F)C(F)F)cc2)cc1.Cl` [Example 106, N-(4-tert-Butylbenzyl)-6-chloro-1-[4-(1,1,2,2-tetrafluoroethoxy)phenyl]-1H-benzimidazol-2-amine hydrochloride] are 130 to 133 °C and under 100 nM.
On the same counts, the results for `COc1ccc(-n2c(SCc3ccc(Cl)cc3)nc3cc(Cl)c(Cl)cc32)cc1` [Example 108, 5,6-Dichloro-2-[(4-chlorobenzyl)thio]-1-(4-methoxyphenyl)-1H-benzimidazole] are 141 to 142 °C and under 100 nM.
`CC(C)Oc1ccc(-n2c(SCc3ccc(Cl)cc3)nc3cc(Cl)c(Cl)cc32)cc1` [Example 110, 5,6-Dichloro-2-[(4-chlorobenzyl)thio]-1-(4-isopropoxyphenyl)-1H-benzimidazole] gave a melting point of 149 to 150 °C. On human GPR40, the IC50 is under 100 nM.
